Source: US20250280696A1, “FORMULATIONS AND USES THEREOF IN OPTOELECTRONIC FIELD” (Zhejiang Brilliant Optoelectronic Technology Co.,Ltd., priority 2022, published 2025)

Key:
Assay type in all cases: physicochemical
[1] = Absorption spectrum, emission spectrum and extinction coefficient in toluene solution; details: for Molar extinction coefficient of the toluene solution: at maximum absorption peak
Description: The extinction coefficients of the compounds and their absorption and emission spectrums in the solution were determined as follows: • 1. The compound with a certain amount of substance concentration in the toluene was prepared in a volumetric flask. • 2. The absorption spectrum of the solution was measured by using an ultraviolet-visible spectrophotometer (Puxi T9s) to obtain the absorption peak wavelength. • 3. The absorbance of the maximum absorption peak divided by the amount of substance concentration is the molar extinction coefficient of the compound. • 4. The emission spectrum of the solution was measured by using a fluorescent spectroscope (Hitachi, F-4700 FL Spectrophotometer) to obtain the emission peak wavelength.
(§1) The extinction coefficients of the compounds and their absorption and emission peaks in the solution and film are shown in Table 3.

[2] = UV stability of compounds in toluene (absorbance decay, t80); details: for Times t80: UV LEDs 365 nm & 255 nm, 12 cm, time until absorbance decayed to 80% of initial value; for UV stability compared with the unfluorinated compound 20: UV irradiation
Description: The UV stability of the compounds were tested as follows:
The compound was dissolved in the toluene with a concentration of 1×10^5 mol/L. 3 mL solution was added to the cuvette with a lid and the lid was screwed on tightly, then the cuvette was placed in the ultraviolet-visible spectrophotometer to test the absorption spectrum, the absorbance of the maximum absorption peak was recorded as the initial value. The cuvette was placed at a distance of 12 cm from the UV LEDs (365 nm & 255 nm), irradiated for a period and tested its absorption spectrum, then continued to be irradiated after the test, and repeated until the absorbance decayed to 80% of its initial value, the time was recorded as t80.

[3] = Solubility of compounds in toluene; details: per 100 g toluene
Description: The solubility of the compounds in the toluene were determined as follows: • 1. 1000 mg toluene was placed in the transparent glass sample bottle. • 2. A certain mass of the compound was added into the toluene, and oscillated until completely dissolved. • 3. After the compound was completely dissolved, a certain mass of the compound was further added into the toluene, and oscillated. • 4. The above steps were repeated until the compound wasn't dissolved any more. • 5. The total mass of the compound added was recorded and the solubility was obtained by calculation.

[4] = Absorption and emission spectrum in spin-coated film; details: for Red shift of the spectrum in the film relative to the solution: film vs toluene solution; for Absorption peak of the film / Emission peak of the film: spin-coated film on glass
Description: The Absorption and emission spectrums of the compounds in the film were determined as follows: • 1. The compound with a certain concentration in the toluene was prepared. • 2. The prepared toluene solution was dropped onto a clean glass substrate. • 3. Spin-coating, and then heating at the 80° C. for 1 min. • 4. The absorption spectrum of the film was measured by using an ultraviolet-visible spectrophotometer (Puxi T9s) to obtain the absorption peak wavelength. • 5. The emission spectrum of the film was measured by using a fluorescent spectroscope (Hitachi, F-4700 FL Spectrophotometer) to obtain the emission peak wavelength.
as §1

SMILES | Molar extinction coefficient of the toluene solution [1] | Solubilities(/100 g toluene) [3] | Red shift of the spectrum in the film relative to the solution [4] | further results
Cc1cccc(C)c1N(c1ccc(C(C)(C)C)cc1)c1cc(N(c2ccc(C(C)(C)C)cc2)c2c(C)cccc2C)c2ccc3c(N(c4ccc(C(C)(C)C)cc4)c4c(C)cccc4C)cc(N(c4ccc(C(C)(C)C)cc4)c4c(C)cccc4C)c4ccc1c2c43 [Compound 4] | 30000 L/mol | 4.2 g | very small red shift | Times t80 [2]: 195 min
Cc1cccc(C)c1N(c1cc(C(C)(C)C)cc(C(C)(C)C)c1)c1cc(N(c2cc(C(C)(C)C)cc(C(C)(C)C)c2)c2c(C)cccc2C)c2ccc3c(N(c4cc(C(C)(C)C)cc(C(C)(C)C)c4)c4c(C)cccc4C)cc(N(c4cc(C(C)(C)C)cc(C(C)(C)C)c4)c4c(C)cccc4C)c4ccc1c2c43 [Compound 7] | 56000 L/mol | 4.6 g | very small red shift | Times t80 [2]: 280 min
CC(C)c1cccc(C(C)C)c1N(c1ccc(C(C)(C)C)cc1)c1cc(N(c2ccc(C(C)(C)C)cc2)c2c(C(C)C)cccc2C(C)C)c2ccc3c(N(c4ccc(C(C)(C)C)cc4)c4c(C(C)C)cccc4C(C)C)cc(N(c4ccc(C(C)(C)C)cc4)c4c(C(C)C)cccc4C(C)C)c4ccc1c2c43 [Compound 8] | – | >20 g | – | –
CC(C)c1cccc(C(C)C)c1N(c1cc(C(C)(C)C)cc(C(C)(C)C)c1)c1cc(N(c2cc(C(C)(C)C)cc(C(C)(C)C)c2)c2c(C(C)C)cccc2C(C)C)c2ccc3c(N(c4cc(C(C)(C)C)cc(C(C)(C)C)c4)c4c(C(C)C)cccc4C(C)C)cc(N(c4cc(C(C)(C)C)cc(C(C)(C)C)c4)c4c(C(C)C)cccc4C(C)C)c4ccc1c2c43 [Compound 9] | – | >20 g | – | –
CCc1cccc(CC)c1N(c1ccc(C(C)(C)C)cc1)c1cc(N(c2ccc(C(C)(C)C)cc2)c2c(CC)cccc2CC)c2ccc3c(N(c4ccc(C(C)(C)C)cc4)c4c(CC)cccc4CC)cc(N(c4ccc(C(C)(C)C)cc4)c4c(CC)cccc4CC)c4ccc1c2c43 [Compound 11] | 53000 L/mol | 25.9 g | very small red shift | Times t80 [2]: 257 min
Cc1ccccc1N(c1ccc(C(C)(C)C)cc1C)c1cc(N(c2ccccc2C)c2ccc(C(C)(C)C)cc2C)c2ccc3c(N(c4ccccc4C)c4ccc(C(C)(C)C)cc4C)cc(N(c4ccccc4C)c4ccc(C(C)(C)C)cc4C)c4ccc1c2c43 [Compound 12] | – | >3 g | – | –
Cc1cc2ccccc2cc1N(c1ccc(C(C)(C)C)cc1)c1cc(N(c2ccc(C(C)(C)C)cc2)c2cc3ccccc3cc2C)c2ccc3c(N(c4ccc(C(C)(C)C)cc4)c4cc5ccccc5cc4C)cc(N(c4ccc(C(C)(C)C)cc4)c4cc5ccccc5cc4C)c4ccc1c2c43 [Compound 13] | – | >2.5 g | – | –
Cc1cc2ccccc2c(C)c1N(c1ccc(C(C)(C)C)cc1)c1cc(N(c2ccc(C(C)(C)C)cc2)c2c(C)cc3ccccc3c2C)c2ccc3c(N(c4ccc(C(C)(C)C)cc4)c4c(C)cc5ccccc5c4C)cc(N(c4ccc(C(C)(C)C)cc4)c4c(C)cc5ccccc5c4C)c4ccc1c2c43 [Compound 14] | – | >2 g | – | –
Cc1cccc(C)c1N(c1ccc(C(F)(F)F)cc1)c1cc(N(c2ccc(C(F)(F)F)cc2)c2c(C)cccc2C)c2ccc3c(N(c4ccc(C(F)(F)F)cc4)c4c(C)cccc4C)cc(N(c4ccc(C(F)(F)F)cc4)c4c(C)cccc4C)c4ccc1c2c43 [Compound 15] | – | >4 g | – | –
Fc1ccc(N(c2ccccc2)c2cc(N(c3ccccc3)c3ccc(F)cc3)c3ccc4c(N(c5ccccc5)c5ccc(F)cc5)cc(N(c5ccccc5)c5ccc(F)cc5)c5ccc2c3c54)cc1 [Compound 16] | 37000 L/mol | >1.5 g | large red shift | Absorption peak of the toluene solution [1]: 466 nm; Emission peak of the toluene solution [1]: 493 nm; Times t80 [2]: 227 min; UV stability compared with the unfluorinated compound 20 [2]: greatly improved; Absorption peak of the film [4]: 469 nm; Emission peak of the film [4]: 551 nm
Fc1cccc(F)c1N(c1ccccc1)c1cc(N(c2ccccc2)c2c(F)cccc2F)c2ccc3c(N(c4ccccc4)c4c(F)cccc4F)cc(N(c4ccccc4)c4c(F)cccc4F)c4ccc1c2c43 [Compound 17] | 18000 L/mol | >1 g | large red shift | Absorption peak of the toluene solution [1]: 439 nm; Emission peak of the toluene solution [1]: 462 nm; UV stability compared with the unfluorinated compound 20 [2]: greatly improved; Absorption peak of the film [4]: 445 nm; Emission peak of the film [4]: 496 nm
Cc1cccc(C)c1N(c1nc(-c2ccccc2)nc(-c2ccccc2)n1)c1cc(C(C)C)c2ccc3c(N(c4nc(-c5ccccc5)nc(-c5ccccc5)n4)c4c(C)cccc4C)cc(C(C)C)c4ccc1c2c43 [Compound 18] | – | >1 g | – | –
Cc1cccc(C)c1N(c1ncc2ccccc2n1)c1cc(C(C)C)c2ccc3c(N(c4ncc5ccccc5n4)c4c(C)cccc4C)cc(C(C)C)c4ccc1c2c43 [Compound 19] | – | >1 g | – | –
CC(C)(C)c1ccc(N(c2ccccc2)c2cc(N(c3ccccc3)c3ccc(C(C)(C)C)cc3)c3ccc4c(N(c5ccccc5)c5ccc(C(C)(C)C)cc5)cc(N(c5ccccc5)c5ccc(C(C)(C)C)cc5)c5ccc2c3c54)cc1 [Compound 21] | 40000 L/mol | >3 g | large red shift | Absorption peak of the toluene solution [1]: 469 nm; Emission peak of the toluene solution [1]: 495 nm; Absorption peak of the film [4]: 472 nm; Emission peak of the film [4]: 546 nm
CCCCCCCCc1ccc(-c2cc(N(c3ccc(C(C)(C)C)cc3)c3ccc(C(C)(C)C)cc3)ccc2N(c2cc(F)c(F)c(F)c2)c2cc(N(c3cc(F)c(F)c(F)c3)c3ccc(N(c4ccc(C(C)(C)C)cc4)c4ccc(C(C)(C)C)cc4)cc3-c3ccc(CCCCCCCC)cc3)c3ccc4c(N(c5cc(F)c(F)c(F)c5)c5ccc(N(c6ccc(C(C)(C)C)cc6)c6ccc(C(C)(C)C)cc6)cc5-c5ccc(CCCCCCCC)cc5)cc(N(c5cc(F)c(F)c(F)c5)c5ccc(N(c6ccc(C(C)(C)C)cc6)c6ccc(C(C)(C)C)cc6)cc5-c5ccc(CCCCCCCC)cc5)c5ccc2c3c54)cc1 [Compound 25] | 51000 L/mol | >10 g | very small red shift | –
CC(C)(C)c1ccc2c(c1)c1cc(C(C)(C)C)cc3c1n2-c1cccc2c1B3c1cc3c4ccccc4c4ccccc4c3c3c4c5c6ccccc6c6ccccc6c5ccc4n-2c13 [Compound E2, reference compound] | 48000 L/mol | >0.7 g | – | –
CC(C)(C)c1ccc2c(c1)B1c3c(c4c5c(c3-n3c6ccc(C(C)(C)C)cc6c6cc(C(C)(C)C)cc1c63)Oc1ccc(C(C)(C)C)cc1B5c1cc(C(C)(C)C)cc3c5cc(C(C)(C)C)ccc5n-4c13)O2 [Compound E4, reference compound] | 27000 L/mol | >0.7 g | – | Absorption peak of the toluene solution [1]: 589 nm; Emission peak of the toluene solution [1]: 613 nm
